Assay [1] relates to acetylcholine receptor clustering in C2Cl2 cells. The assay can be described thus: Induction of acetylcholine receptor clustering in mouse myoblasts C2Cl2 cells (Test Example 1). The assay is classed as cell-based. Particulars: for Emax / pEC50: Mus musculus; for Emax: Myoblast, maximum response, area of acetylcholine receptor cluster region vs 10 ng/ml Agrin (100%), 0.1 ng/ml Agrin = 0%, read-out: Max; for pEC50: Myotube, C2Cl2 myotubes, with 0.1 ng/ml Agrin, concentration giving 50% of cluster area of 10 ng/ml Agrin (100%), read-out: EC50. How it is done:
Test Example 1: Evaluation of the Induction of Acetylcholine Receptor Clustering in Mouse Myoblasts C2Cl2 Cells
Induction of acetylcholine receptor clustering by the test compound was evaluated by using fluorescently-labeled Bungarotoxin to image and quantify the acetylcholine receptor cluster region induced by the differentiation of myoblasts into myotubes, and measure the change in area. The following test method was optimized with reference to various reports including FEBS let., 586, 3111-3116 (2012). When a concentration response curve is obtained by plotting the logarithmic concentration of the test compound on the horizontal axis and the ratio of the area of acetylcholine receptor cluster region on the vertical axis, the inducing action of the test compound can be determined.
A concentration response curve as an index indicating acetylcholine receptor clustering inducing action of the test compound in mouse C2Cl2 cells was prepared. C2Cl2 cells (ATCC Number: CRL-1772) were seeded at about 5000 cells/well on a 384-well plate (354667; Corning) coated with type I collagen and allowed to incubate at 37 degrees Celsius overnight in DMEM+20% FBS+1% penicillin/streptomycin medium. The following day, the medium was removed and replaced with a differentiation medium containing DMEM+2% FBS+1% penicillin/streptomycin, and allowed to incubate at 37 degrees Celsius for 4 days. The test compound was dissolved in DMSO and added to a differentiation medium containing 0.1 ng/ml Agrin (550-AG-100; R&D systems) such that the final concentration was […] (3-fold serial dilution) or 0.00017 to 3.3 μM (3-fold serial dilution). The final concentration of DMSO was 0.3%. After the 4 days of incubation, the differentiation medium was replaced with a differentiation medium containing the test compound and 0.1 ng/ml Agrin or a differentiation medium containing 0.1 ng/ml Agrin or 10 ng/ml Agrin alone, and allowed to incubate at 37 degrees Celsius overnight. The next day, 10 μl of DMEM containing Bungarotoxin-Alexa488 (B13422; Life technologies) was added to the differentiation medium containing test compound and Agrin and Agrin alone so that the final concentration of Bungarotoxin-Alexa488 was 1 μg/ml, and was allowed to incubate at 37 degrees Celsius for 1 hour to label the acetylcholine receptor. After removing all the medium, 4% PFA was added to each well and allowed to incubate at room temperature for 10 minutes, then washed with PBS, and allowed to incubate at room temperature for 30 minutes in PBS containing 5% goat serum and 0.3% Triton X-100. After removing the PBS solution, PBS-Tween20 (28352; Thermo fisher scientific) containing Anti-Myosin Heavy Chain eFluor (registered trademark) 660 (50-6503-82; eBioscience) and DAPI (340-07971; Dojindo) was added to each well and allowed to incubate at room temperature for 1 hour to label the myotubes and nuclei. After washing three times with PBS-Tween20, the fluorescence was imaged using IN Cell Analyzer 6000 (GE Healthcare). […] The response of control group (1) was regarded as 0% and the response of the control group (2) was regarded as 100%. For quantification, the signal of only the acetylcholine receptor present in the myotube was used to eliminate non-specific fluorescence.
EC50 and Max value were used as indicators of activity in order to quantitatively evaluate the inducing action of the test compound on acetylcholine receptor clustering. EC50 value is a test compound concentration which indicates 50% in terms of the area of acetylcholine receptor cluster region compared to that of 10 ng/ml Agrin (regarded as 100%) in the concentration response curve. EC50 was calculated by nonlinear regression analysis from the concentration response curve using the area of the cluster region of the test compound as an index. Max value is the maximum response value. […]

Assay [2] concerns MuSK-type myasthenia gravis animal model. Briefly: Suppressing action on muscle weakness (grip strength) in MuSK type myasthenia gravis animal model (Test Example 3). In kind it is in vivo, mouse. As to conditions: grip strength test on 4th day, female DBA/2 mice, FIG. 2. On the procedure:
Test Example 3: Suppressing Action on Muscle Weakness in MuSK Type Myasthenia Gravis Animal Model
(§1) In a MuSK-type myasthenia gravis animal model, in which the production of autoantibodies against endogenous MuSK was induced by immunizing with human recombinant MuSK protein, decreased grip strength was evaluated as a pathological index.
(§2) A grip strength measuring device (GPM-100B; Melquest) was used to measure the grip strength of the extremities.
(§3) Repeated daily oral administration of the test compound in the MuSK-type myasthenia gravis animal model was performed as follows.
Seven point five micrograms of human MuSK recombinant protein (9810-MK; R&D systems) prepared with Freund's Complete Adjuvant (263810; Becton, Dickinson and Company) was intradermally administered to the tail of 8-week-old female DBA/2 mice (Charles River Laboratories Japan). Two weeks later, 7.5 micrograms of human MuSK recombinant protein prepared with Freund's Incomplete Adjuvant (263910; Becton, Dickinson and Company) was intradermally administered to the tail to induce myasthenia gravis mice. A week later, antibody titers against human MuSK in serum and grip strengths by the grip strength test were measured, and the mice were divided into groups of 6 mice each and subjected to administration of the test compound. The test compound was orally administered to the mice in the treatment group (3 and 10 mg/kg, suspended in 0.5% methylcellulose twice daily), and vehicle (0.5% methylcellulose) was used for the mice in the control group in place of the test compound. As a normal group, mice of the same age, same sex, and same strain were used that were not immunized with human recombinant MuSK protein. A grip strength test was performed after the administration in the morning of the 4th day.
The significance test between the normal group and the control group was performed by the Student-t test (*p<0.05). In addition, Dunnett's multiple comparison test was used between the control group and the test compound group (#p<0.05). A p-value less than 5% was regarded as significant in all the tests.

In assay [3] the test system is acetylcholine receptor clustering. As to conditions: NPL 16; cited from earlier work.
The test system is the same in assay [4]. As to conditions: reported in NPL 15; cited from earlier work.
The test system of assay [5] is MuSK-type myasthenia gravis animal model. The assay can be described thus: Suppressing action on muscle weakness (grip strength) in MuSK type myasthenia gravis animal model (Test Example 2). In kind it is in vivo, mouse. Particulars: grip strength test on 5th day, female DBA/2 mice, FIG. 1. On the procedure:
Test Example 2: Suppressing Action on Muscle Weakness in MuSK Type Myasthenia Gravis Animal Model
as §1, §2, §3
Seven point five micrograms of human MuSK recombinant protein (9810-MK; R&D systems) prepared with Freund's Complete Adjuvant (263810; Becton, Dickinson and Company) was intradermally administered to the tail of 8-week-old female DBA/2 mice (Charles River Laboratories Japan). Two weeks later, 7.5 micrograms of human MuSK recombinant protein prepared with Freund's Incomplete Adjuvant (263910; Becton, Dickinson and Company) was intradermally administered to the tail to induce myasthenia gravis mice. A week later, antibody titers against human MuSK in serum and grip strengths by the grip strength test were measured, and the mice were divided into groups of 6 mice each based on the antibody titer value and subjected to administration of the test compound. […]

pEC50: −log10 of the molar value.

Consider `Cc1cc(-c2c(F)cc(S(=O)(=O)N3CCC(F)CC3)cc2F)nc2cc(C(=O)O)ccc12` [Example 19, 2-[2,6-difluoro-4-(4-fluoropiperidine-1-sulfonyl)phenyl]-4-methylquinoline-7-carboxylic acid], for which, in assay [1], the Emax worked out at 108% and the pEC50 (usually −log10 of the EC50, conventionally taken in molar units) was 7.80. Besides, the “suppressing action on grip strength decrease” value in assay [2] (10 mg/kg oral twice daily) was “suppressing action on grip strength decrease”.

With `C=C1CC[C@H](O)C/C1=C/C=C1\CCC[C@]2(C)[C@@H]([C@H](C)CCCC(C)C)CC[C@@H]12`, in assay [3], the “inducing action on acetylcholine receptor clustering in combination with Agrin” value is reported as “promotes an inducing action on acetylcholine receptor clustering”.

On to `Cc1c(F)c(-c2c(F)cc(S(=O)(=O)N3CCC(F)CC3)cc2F)nc2cc(C(=O)O)ccc12` [Example 18, 2-[2,6-difluoro-4-(4-fluoropiperidine-1-sulfonyl)phenyl]-3-fluoro-4-methylquinoline-7-carboxylic acid], for which, in assay [1], the Emax amounted to 99.8% and the pEC50 is 8.52. The “suppressing action on grip strength decrease” value in assay [2] (3 mg/kg oral twice daily) is reported as “suppressing action on grip strength decrease”. The “suppressing action on grip strength decrease” value in assay [2] (10 mg/kg oral twice daily) is “suppressing action on grip strength decrease”.

`CC(C)(C)NCC(O)c1ccc(O)c(CO)c1` (centres unmarked) [salbutamol]: the “inducing action on acetylcholine receptor clustering” value in assay [4] is “has an inducing action on acetylcholine receptor clustering”.

`Cc1cc(-c2c(F)cc(S(=O)(=O)N3CCC(F)CC3)cc2F)nc2cc(C(=O)NCCCN)ccc12` [Example 58]: in assay [1], the Emax stood at 89.6% and the pEC50 is 7.48.

Consider `Cc1c(F)c(-c2c(F)cc(S(=O)(=O)N3CCCC34CC4)cc2F)nc2cc(C(=O)O)ccc12` [Example 25], for which, in assay [1], the Emax amounted to 105% and the pEC50 is 6.74.

Regarding `Cc1cc(-c2c(F)cc(S(=O)(=O)N3CC[C@H](F)C3)cc2F)nc2cc(C(=O)[O-])ccc12.[Na+]` [Example 2, sodium 2-{2,6-difluoro-4-[(3S)-3-fluoropyrrolidine-1-sulfonyl]phenyl}-4-methylquinoline-7-carboxylate], the “suppressing action on grip strength decrease” value in assay [5] (10 mg/kg oral twice daily) and in assay [5] (30 mg/kg oral twice daily) was “suppressing action on grip strength decrease” throughout.

Turning to `COCc1cc(S(=O)(=O)N2CC[C@H](F)C2)ccc1-c1cc(C)c2ccc(C(=O)O)cc2n1` [Example 32], the Emax in assay [1] came to 38.8%. In assay [1] (at 30 μM, vs 10 ng/ml Agrin (100%)), the “response, % at 30 μM” value amounted to 38.8% at 30 μM.
